Assay results from ChEMBL document CHEMBL1127715, “Perhydrothiopyranopyrroles derivatives : A novel series of potent and selective nonpeptide NK1 antagonists” (Bioorg Med Chem Lett, 1994).
pIC50: −log10 of the molar value.

Tests used:
Cavia porcellus = species: Cavia porcellus; experiment: Compound was evaluated for antagonism of the contractile effect in guinea pig ileum preparation; type: functional
Substance-P receptor [1] = target: T1, Substance-P receptor (Homo sapiens, UniProt P25103); experiment: Compound was evaluated for binding affinity against human Tachykinin receptor 1
Substance-P receptor [2] = target: T1, Substance-P receptor; experiment: Compound was evaluated for its affinity, measured in [3H]SP binding assay on human IM9 lymphoblast cultured cell line
Substance-P receptor [3] = target: Substance-P receptor (Cavia porcellus, UniProt P30547); experiment: Compound was evaluated for its affinity to guinea pig Tachykinin receptor 1
Substance-P receptor [4] = target: Substance-P receptor (Rattus norvegicus, UniProt P14600); experiment: Compound was evaluated for its affinity to rat Tachykinin receptor 1
Mus musculus = species: Mus musculus; experiment: Compound was evaluated for inhibiting PBQ induced writhing in mice perorally; type: functional

T1 sequence (P25103 whole entry): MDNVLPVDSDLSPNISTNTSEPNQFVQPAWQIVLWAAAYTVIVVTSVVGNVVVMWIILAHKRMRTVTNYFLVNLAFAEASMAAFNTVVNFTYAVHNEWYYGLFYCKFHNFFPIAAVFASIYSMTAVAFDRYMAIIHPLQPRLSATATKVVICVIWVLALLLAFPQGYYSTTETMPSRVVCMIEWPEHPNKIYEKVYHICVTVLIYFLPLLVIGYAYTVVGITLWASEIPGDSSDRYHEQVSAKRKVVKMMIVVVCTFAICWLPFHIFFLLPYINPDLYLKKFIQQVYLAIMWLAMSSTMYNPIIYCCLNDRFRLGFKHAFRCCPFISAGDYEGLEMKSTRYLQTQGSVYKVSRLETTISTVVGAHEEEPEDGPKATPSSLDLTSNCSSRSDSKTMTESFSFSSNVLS
Sequence of Substance-P receptor (Cavia porcellus, UniProt P30547) (P30547 whole entry): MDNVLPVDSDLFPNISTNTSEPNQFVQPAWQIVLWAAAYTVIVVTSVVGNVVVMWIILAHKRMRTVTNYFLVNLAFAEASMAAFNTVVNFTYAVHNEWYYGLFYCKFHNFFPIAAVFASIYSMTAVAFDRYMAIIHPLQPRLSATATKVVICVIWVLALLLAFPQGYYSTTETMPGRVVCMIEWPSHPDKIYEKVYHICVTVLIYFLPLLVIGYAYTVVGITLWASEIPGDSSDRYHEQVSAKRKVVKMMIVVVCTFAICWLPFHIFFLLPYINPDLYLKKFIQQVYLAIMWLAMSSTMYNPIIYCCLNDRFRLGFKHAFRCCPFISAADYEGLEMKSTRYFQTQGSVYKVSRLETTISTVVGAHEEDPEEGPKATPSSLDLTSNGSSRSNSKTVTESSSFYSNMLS
Sequence of Substance-P receptor (Rattus norvegicus, UniProt P14600) (P14600 whole entry): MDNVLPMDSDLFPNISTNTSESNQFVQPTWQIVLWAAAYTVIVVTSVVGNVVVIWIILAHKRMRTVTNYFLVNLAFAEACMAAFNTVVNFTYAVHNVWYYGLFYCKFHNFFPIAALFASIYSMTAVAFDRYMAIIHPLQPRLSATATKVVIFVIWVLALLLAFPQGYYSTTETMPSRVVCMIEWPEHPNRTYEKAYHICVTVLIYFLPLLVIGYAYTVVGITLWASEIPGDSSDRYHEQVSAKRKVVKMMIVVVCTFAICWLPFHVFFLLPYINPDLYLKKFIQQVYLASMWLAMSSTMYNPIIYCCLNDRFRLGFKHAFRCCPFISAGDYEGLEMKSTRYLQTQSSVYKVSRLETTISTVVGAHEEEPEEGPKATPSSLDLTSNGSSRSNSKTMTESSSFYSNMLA

- pIC50 (Cavia porcellus): 7.70
- pIC50 (Substance-P receptor [1]): 7.64
- pIC50 (Substance-P receptor [2]): 7.31
- pIC50 (Substance-P receptor [3]): 7.15
- pIC50 (Substance-P receptor [4]): 8.00
Compound: COc1ccccc1[C@H](C)C(=O)N1CC2[C@@H](C1)C(c1ccccc1)(c1ccccc1)CC[S+]2[O-] (stereo partly specified)
- ED50 (Mus musculus): 5 mg/kg
